SMILES strings stand for the structures. Where a name gives a salt, the structure may show the parent alone.

One series addresses T1, human CB1 receptor (Homo sapiens, UniProt P21554).
T1 construct: U373MG cells naturally expressing the human CB1 receptor; endogenous in cells; host or cells: U373MG cells
As to the kind of experiment: intracellular cyclic AMP functional test in U373MG cells (HTRF cAMP Dynamic Kit). The class given is cell-based. The conditions noted are these: U373MG cells naturally expressing the human CB1 receptor. How it is done:
The compounds according to the invention have formed the subject of pharmacological assays which make it possible to determine the activity with regard to human CB1-type cannabinoid receptors. The effectiveness of the compounds of formula (I) was determined in a functional test in which the activity of the CB1 cannabinoid receptors is measured (intracellular cyclic AMP test). The test for detecting intracellular cyclic AMP in U373MG cells naturally expressing the human CB1 receptor was carried out as described in the reference: Bouaboula et al., 1995, J. Biol. Chem. 270: 13973-13980. The HTRF cAMP Dynamic Kit from CisBio was used to quantify the intracellular cyclic AMP. In this test, the IC50 values are between 0.001 μM and 2 μM.

Series [1] deals with T2, CB1-type cannabinoid receptor (Mus musculus, UniProt P47746).
T2 construct: male CD1 mice receive the test product per os; from tissue; host or cells: whole animal, male CD1 mice
T2 sequence (P47746 whole entry): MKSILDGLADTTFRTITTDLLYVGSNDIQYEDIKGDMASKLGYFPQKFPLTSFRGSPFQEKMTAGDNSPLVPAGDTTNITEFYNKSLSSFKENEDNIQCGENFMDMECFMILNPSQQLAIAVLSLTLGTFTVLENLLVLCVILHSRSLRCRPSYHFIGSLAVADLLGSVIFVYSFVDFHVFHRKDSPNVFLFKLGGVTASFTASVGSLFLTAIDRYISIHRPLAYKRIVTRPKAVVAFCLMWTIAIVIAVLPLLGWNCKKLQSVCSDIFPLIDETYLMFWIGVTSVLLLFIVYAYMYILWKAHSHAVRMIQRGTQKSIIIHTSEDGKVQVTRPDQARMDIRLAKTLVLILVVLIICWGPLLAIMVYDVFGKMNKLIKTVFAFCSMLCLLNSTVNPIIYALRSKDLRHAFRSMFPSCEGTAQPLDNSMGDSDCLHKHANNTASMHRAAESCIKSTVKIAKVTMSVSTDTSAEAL
Kind of series: inhibition of gastrointestinal transit induced by racemic CP55,940 in mice (charcoal bolus). The format is in vivo. The conditions noted are these: 1 mg/kg po; male CD1 mice; CP55,940 0.15 mg/kg ip; progression of charcoal bolus. The text has this:
Thirty minutes later, the animals are sacrificed by euthanasia (CO2/O2) and the intestine is dissected. The progression of the charcoal bolus in the intestine is expressed as percentage of the total length of the intestine.
Consequently, the compounds of the invention of formula (I) are in vitro and in vivo CB1-type cannabinoid receptor antagonists. Some compounds are active in vivo with regard to both the hypothermia test and the transit test, and some compounds show activities split up between the hypothermia test and the transit test.

A further series addresses T3, CB cannabinoid receptor (Mus musculus, UniProt P47746).
T3 construct: from tissue; host or cells: whole animal, male CD1 mice
As to the kind of experiment: hypothermia induced by CB agonist racemic CP55,940 in mice (rectal temperature). The format is in vivo. The settings on record: 3 mg/kg po; male CD1 mice; CP55,940 1.25 mg/kg i.p.; rectal temperature at 90 minutes. How it is done:
Other assays consisting in measuring the in vivo activity of the compounds of the invention were carried out. Their antagonist activity was shown by means of the model of […] induced by a CB cannabinoid receptor agonist (racemic CP55,940 ((1RS,3RS,4RS)-3-[2-hydroxy-4-(1,1-dimethylheptyl)phenyl]-4-(3-hydroxypropyl)cyclohexan-1-ol) at a dose of 1.25 mg/kg) in mice, according to the method described by Pertwee R. G. in Marijuana 84, Harvey D. J. eds., Oxford IRL
Press, 263-277 (1985). At time 0 min, the rectal temperature of male CD1 mice is measured before injection of the test product. At 30 minutes, a further measurement of the rectal temperature of the mice is taken and the racemic CP55,940 agonist ((1RS,3RS,4RS)-3-[2-hydroxy-4-(1,1-dimethylheptyl)phenyl]-4-(3-hydroxypropyl)cyclohexan-1-ol) (1.25 mg/kg i.p. in 10% cremophor) is administered. At 90 minutes, the rectal temperature is again measured. The results are expressed as % with respect to the control batched injected with CP 55,940 (minimum temperature) and to the carrier batch without treatment with CP55,940 (maximum temperature).

T1 sequence (P21554 whole entry): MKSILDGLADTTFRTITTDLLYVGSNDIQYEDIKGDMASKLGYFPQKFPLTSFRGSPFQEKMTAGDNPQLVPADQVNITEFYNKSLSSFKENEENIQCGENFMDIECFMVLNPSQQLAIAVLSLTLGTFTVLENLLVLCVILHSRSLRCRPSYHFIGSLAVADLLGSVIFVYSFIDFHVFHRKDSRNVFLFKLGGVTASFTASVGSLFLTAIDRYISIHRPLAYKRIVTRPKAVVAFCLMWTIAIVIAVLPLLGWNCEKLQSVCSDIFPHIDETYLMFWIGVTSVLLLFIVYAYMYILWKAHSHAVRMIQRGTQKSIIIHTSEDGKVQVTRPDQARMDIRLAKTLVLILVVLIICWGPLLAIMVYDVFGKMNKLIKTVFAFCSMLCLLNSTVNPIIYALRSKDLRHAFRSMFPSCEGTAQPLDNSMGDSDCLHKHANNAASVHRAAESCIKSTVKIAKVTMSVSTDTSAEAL
T3 sequence (P47746 whole entry): as the sequence (P47746 whole entry) above

Usually IC50 stands for the point on the concentration scale where inhibition reaches its midpoint. Higher therefore signals a need for much substance. Consider `CS(=O)(=O)N(c1cccc(C(=O)NC2(CCO)CC2)c1)C1CN(C(c2ccc(Cl)cc2)c2ccc(Cl)cc2)C1` [compound 21, 3-({1-[bis(4-chlorophenyl)methyl]azetidin-3-yl}(methanesulphonyl)amino)-N-[1-(2-hydroxyethyl)cyclopropyl]benzamide], for which, at human CB1 receptor, the IC50 came out at 38 nM. The same measure, in the same setting: for `CS(=O)(=O)N(c1cccc(C(=O)NCCO)c1)C1CN(C(c2ccc(Cl)cc2)c2ccc(Cl)cc2)C1` [Compound No. 7, 3-({1-[Bis(4-chlorophenyl)methyl]azetidin-3-yl}(methanesulphonyl)amino)-N-(2-hydroxyethyl)benzamide hydrochloride (1:1)] the value was 61 nM.

What is called melting point is the temperature, or range, at which the solid turns liquid. Consider `CS(=O)(=O)N(c1cccc(C(=O)NC(CO)CO)c1)C1CN(C(c2ccc(Cl)cc2)c2ccc(Cl)cc2)C1` [Compound No. 17, 3-({1-[Bis(4-chlorophenyl)methyl]azetidin-3-yl}(methanesulphonyl)amino)-N-(2-hydroxy-1-(hydroxymethyl)ethyl)benzamide], for which the melting point fell in the range of 192 to 194 °C. The same measure, in the same setting: under `CC(C)(O)CNC(=O)c1cccc(N(C2CN(C(c3ccc(Cl)cc3)c3ccc(Cl)cc3)C2)S(C)(=O)=O)c1` [compound 13, 3-({1-[bis(4-chlorophenyl)methyl]azetidin-3-yl}(methanesulphonyl)amino)-N-(2-hydroxy-2-methylprop-1-yl)benzamide] stands 140 °C. In the case of `C[C@@H](CO)NC(=O)c1cc(N(C2CN(C(c3ccc(Cl)cc3)c3ccc(Cl)cc3)C2)S(C)(=O)=O)cc(C(F)(F)F)c1` [compound 36, (+)-3-({1-[bis(4-chlorophenyl)methyl]azetidin-3-yl}(methanesulphonyl)amino)-N—((S)-1-hydroxyprop-2-yl)-5-(trifluoromethyl)benzamide], the percentage of inhibition in series [1] amounted to 85%. For the same compound, at human CB1 receptor, the IC50 worked out at 16 nM. With `C[C@@H](CO)NC(=O)c1cccc(N(C2CN(C(c3ccc(Cl)cc3)c3ccc(Cl)cc3)C2)S(C)(=O)=O)c1` [Compound No. 9, (+)-3-({1-[Bis(4-chlorophenyl)methyl]azetidin-3-yl}(methanesulphonyl)amino)-N-(2-hydroxy-1-methylethyl)benzamide], the melting point is 192 to 194 °C. In series [1], this compound had a percentage of inhibition of 82%. The percentage of inhibition on CB cannabinoid receptor amounted to 30%. This compound showed an IC50 at human CB1 receptor of 15 nM. With `CS(=O)(=O)N(c1cc(F)cc(C(=O)NC(CO)CO)c1)C1CN(C(c2ccc(Cl)cc2)c2ccc(Cl)cc2)C1` [Compound No. 26, 3-({1-[Bis(4-chlorophenyl)methyl]azetidin-3-yl}(methanesulphonyl)amino)-5-fluoro-N-(2-hydroxy-1-(hydroxymethyl)ethyl)benzamide], the melting point lay in the range of 144 to 146 °C. Besides, the IC50 on human CB1 receptor was 20 nM.

At human CB1 receptor, `CS(=O)(=O)N(c1cc(F)cc(C(=O)NCC(O)C(F)(F)F)c1)C1CN(C(c2ccc(Cl)cc2)c2ccc(Cl)cc2)C1` (centres unmarked) [compound 30, 3-({1-[bis(4-chlorophenyl)methyl]azetidin-3-yl}(methanesulphonyl)amino)-5-fluoro-N-(3,3,3-trifluoro-2-hydroxyprop-1-yl)benzamide] yielded an IC50 of 66 nM. `CC(CO)(CO)NC(=O)c1cc(F)cc(N(C2CN(C(c3ccc(Cl)cc3)c3ccc(Cl)cc3)C2)S(C)(=O)=O)c1` [Compound No. 27, 3-({1-[Bis(4-chlorophenyl)methyl]azetidin-3-yl}(methanesulphonyl)amino)-5-fluoro-N-(2-hydroxy-1-hydroxymethyl-1-methylethyl)benzamide] returned a melting point of 159 to 161 °C. In series [1], this compound showed a percentage of inhibition of 58%. `CS(=O)(=O)N(c1cc(C(=O)N[C@H]2CCC[C@@H]2O)cc(C(F)(F)F)c1)C1CN(C(c2ccc(Cl)cc2)c2ccc(Cl)cc2)C1` (racemic) [compound 41, 3-({1-[bis(4-chlorophenyl)methyl]azetidin-3-yl} (methanesulphonyl)amino)-N-((1SR,2SR)-2-hydroxycyclopent-1-yl)-5-(trifluoromethyl)benzamide]: the percentage of inhibition in series [1] is 91%.

Take `CC(CO)NC(=O)c1cc(F)cc(N(C2CN(C(c3ccc(Cl)cc3)c3ccc(Cl)cc3)C2)S(C)(=O)=O)c1` (single isomer, unassigned; (+)) [Compound No. 25, (+)-3-({1-[Bis(4-chlorophenyl)methyl]azetidin-3-yl}(methanesulphonyl)amino)-5-fluoro-N-(2-hydroxy-1-methylethyl)benzamide]: the melting point lay in the range of 148 to 150 °C. On CB cannabinoid receptor, this compound registered a percentage of inhibition of 18%. `CC(CO)(CO)NC(=O)c1cccc(N(C2CN(C(c3ccc(Cl)cc3)c3ccc(Cl)cc3)C2)S(C)(=O)=O)c1` [compound 18, 3-({1-[bis(4-chlorophenyl)methyl]azetidin-3-yl}(methanesulphonyl)amino)-N-[1,3-dihydroxy-2-methylprop-2-yl]benzamide] gave a melting point of 192 °C. In addition, on human CB1 receptor, the IC50 was 6 nM. `CC1(C)OCC(CNC(=O)c2cccc(N(C3CN(C(c4ccc(Cl)cc4)c4ccc(Cl)cc4)C3)S(C)(=O)=O)c2)O1` (single isomer, unassigned; (-)) [Compound No. 5, (−)-3-({1-[Bis(4-chlorophenyl)methyl]azetidin-3-yl}(methanesulphonyl)amino)-N-(2,2-dimethyl-1,3-dioxolan-4-ylmethyl)benzamide] yielded a 50% inhibitory concentration (IC50) against human CB1 receptor of 22 nM. The same measure, in the same setting: under `CS(=O)(=O)N(c1cc(F)cc(C(=O)N[C@H]2COC[C@@H]2O)c1)C1CN(C(c2ccc(Cl)cc2)c2ccc(Cl)cc2)C1` (racemic) [compound 47, 3-({1-[bis(4-chlorophenyl)methyl]azetidin-3-yl}(methanesulphonyl)amino)-5-fluoro-N-((3SR,4RS)-4-hydroxytetrahydrofuran-3-yl)benzamide] stands 72 nM. `CC(C)(CO)NC(=O)c1cccc(N(C2CN(C(c3ccc(Cl)cc3)c3ccc(Cl)cc3)C2)S(C)(=O)=O)c1` [compound 16, 3-({1-[bis(4-chlorophenyl)methyl]azetidin-3-yl}(methanesulphonyl)amino)-N-(2-hydroxy-1,1-dimethylethyl)benzamide] yielded a melting point of 162 °C.

The record behind these values is patent US20110053908A1, “AZETIDINE-DERIVED COMPOUNDS, PREPARATION METHOD THEREFOR AND THERAPEUTIC USE OF SAME” (SANOFI-AVENTIS, priority 2008, published 2011).
